Measurements taken from patent EP4786466A1, “QUINAZOLINE DERIVATIVE, SALT THEREOF, AND PHARMACEUTICAL COMPOSITION COMPRISING SAME AS ACTIVE INGREDIENT” (Korea Research Institute of Chemical Technology, priority 2023, dated 2025).
Read-outs that look alike come from different tables or passages of the source.

Assays:
[1] = tested on: pENSA; experiment: pENSA level by immunofluorescence (described method: in vitro kinase analysis with GST-tag-MASTL and His-tag-ENSA); type: cell-based; conditions: for pENSA (%) Immunofluor ecense (1 µM): compound 1 µM
Outline: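 In vitro kinase reaction using recombinant GST-tagged MASTL with His-tagged ENSA as substrate; phosphorylated ENSA (pENSA) serves as read-out of MASTL activity. Cell lines named: MCF7 breast cancer and MCF10A.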

[2] = tested on: MCF7 breast cancer cell lines; experiment: Cell viability analysis, WST-8 assay, MCF7; conditions: for Cell viability (%) WST-8, MCF7 (1 µM): compound 1 µM, 72 hours; for viability at 1.1 µM: read-out: Cell viability (%) WST-8, MCF7, footnote d: concentration 1.1 µM, 72 hours
Experimental: (§1) MCF7 breast cancer cell lines and MCF10A normal breast cancer cell lines were treated with serial dilutions of the compounds of the present invention ranging from 1 µM to 15.63 nM for 72 hours. Cell viability was measured by the WST-8 assay (Cyto XTM cell viability assay kit; LPS solution, Daejeon, Korea) according to the manufacturer's instructions.

[3] = target: T1, Recombinant GST-TAG-MASTL (Homo sapiens, UniProt Q96GX5); experiment: HTRF-based kinase assay (HTRF KinEASE assay kit); type: biochemical; conditions: for activity at 1 µM: read-out: MASTL activity (%) HTRF (1 µM)
T1 construct: GST; purchased Thermo Fisher Scientific
T1 sequence (Q96GX5 1-879): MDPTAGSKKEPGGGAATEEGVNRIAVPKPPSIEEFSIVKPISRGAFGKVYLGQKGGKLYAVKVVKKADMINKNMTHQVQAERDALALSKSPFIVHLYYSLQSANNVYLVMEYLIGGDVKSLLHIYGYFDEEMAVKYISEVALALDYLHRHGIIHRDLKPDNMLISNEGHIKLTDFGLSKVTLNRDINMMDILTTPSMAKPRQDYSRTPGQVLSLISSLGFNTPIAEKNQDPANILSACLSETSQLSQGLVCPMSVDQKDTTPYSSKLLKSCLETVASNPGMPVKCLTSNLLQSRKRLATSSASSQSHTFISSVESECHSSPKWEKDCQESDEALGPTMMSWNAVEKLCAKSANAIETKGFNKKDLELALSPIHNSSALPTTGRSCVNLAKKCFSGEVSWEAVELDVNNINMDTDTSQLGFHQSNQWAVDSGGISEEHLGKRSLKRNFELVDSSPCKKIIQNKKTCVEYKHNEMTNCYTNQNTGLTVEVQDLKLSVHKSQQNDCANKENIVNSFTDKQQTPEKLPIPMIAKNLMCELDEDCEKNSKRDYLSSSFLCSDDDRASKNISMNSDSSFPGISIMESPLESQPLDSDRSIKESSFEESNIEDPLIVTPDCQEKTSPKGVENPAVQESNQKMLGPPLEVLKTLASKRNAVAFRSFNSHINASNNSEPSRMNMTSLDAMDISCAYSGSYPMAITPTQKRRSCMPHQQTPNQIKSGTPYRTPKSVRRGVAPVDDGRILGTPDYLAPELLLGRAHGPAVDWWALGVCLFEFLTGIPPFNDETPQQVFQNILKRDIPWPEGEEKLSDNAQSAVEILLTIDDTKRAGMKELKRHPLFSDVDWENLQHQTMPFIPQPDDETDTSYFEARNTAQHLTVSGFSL
Text: Recombinant GST-TAG-MASTL (Thermo Fisher Scientific, MA, USA) was used for HTRF-based kinase assays. The HTRF KinEASE assay kit (CisBio, MA, USA) was used according to the manufacturer's instructions.

[4] = tested on: MCF10A normal breast cancer cell lines; experiment: Cell viability analysis, WST-8 assay, MCF10A; conditions: compound 1 µM, 72 hours
Experimental: as §1

[5] = target: T2, MASTL (Homo sapiens, UniProt Q96GX5); conditions: reported MASTL inhibitors, background art; cited from earlier work
T2 sequence (Q96GX5 1-879): T1 sequence (Q96GX5 1-879)

[6] = Cell viability analysis, WST-8 assay, MCF10A; conditions: human, mcf10a cells
Experimental: as §1

[7] = tested on: MCF10A normal breast cell lines; experiment: Cell viability analysis, WST-8 assay, MCF10A
Experimental: as §1

[8] = in vitro; conditions: human, mcf10a cells
Experimental: as §1

[9] = Homo sapiens, MCF7, 72 h, read-out: IC50(nM) Cell viability (MCF7)
[10] = HTRF, read-out: IC50(nM) MASTL activity
[11] = Homo sapiens, MCF-10A, 72 h, read-out: IC50(nM) Cell viability (MCF10A)
[12] = Homo sapiens, MCF7, 72 h, read-out: IC50 Cell viability (MCF7)
[13] = Homo sapiens, MCF-10A, 72 h, read-out: IC50 Cell viability (MCF10A)
[14] = Homo sapiens, MCF7, 72 h, read-out: Cell viability (%) WST-8, MCF7 (1 µM), compound 1 µM, 72 hours
[15] = read-out: IC50(nM) Cell viability (MCF7), MCF7, WST-8, 72 hours
[16] = read-out: IC50(nM) Cell viability (MCF10A), MCF10A, WST-8, 72 hours

Structure (SMILES)	pENSA (%) Immunofluor ecense (1 µM) [1] [%]	Cell viability (%) WST-8, MCF7 (1 µM) [2] [%]	MASTL activity (%) HTRF (1 µM) ([3]; compound 1 µM) [%]	Cell viability (%) WST-8, MCF10A (1 µM) [4] [%]	IC50 [3, 10] [nM]	activity at 1 µM ([3]; compound 1 µM) [%]	viability at 1.1 µM [8] [%]	viability at 1.1 µM ([2]; Homo sapiens, MCF7, 72 h) [%]	IC50 [2, 12] [nM]	also measured
COc1ccc(CNc2nc(Nc3cc(C4CC4)[nH]n3)c3ccccc3n2)cc1 [4ad, M^4-(5-cyclopropyl-1G-pyrazol-3-yl)-M^2-(4-methoxybenzyl)quinazoline-2,4-diamine]	143	96.4	65.7	96.0	–	–	–	–	–	–
Clc1ccc(Nc2cccc(-c3cn[nH]c3)c2)cc1 [GKI-1]	–	–	–	–	–	–	–	–	–	IC50 [5]: 4900 nM
O=C(Nc1nc2ccccc2[nH]1)c1cccc(-n2cccc2)c1 [MKI-1]	–	–	–	–	–	–	–	–	–	IC50 [5]: 9900 nM
N#CCc1ccc(Nc2nc(Nc3cc(C4CC4)[nH]n3)c3ccccc3n2)cc1 [compound 3a, 2-(4-((4-((5-cyclopropyl-1G-pyrazol-3-yl)amino)quinazolin-2-yl)amino)phenyl)acetonitrile]	5.1	–	–	–	178	20.8	–	–	–	IC50 ([1]; read-out: IC50(nM) pENSA): 100 nM; viability at 1 µM ([2]; Homo sapiens, MCF7, 72 h, read-out: Cell viability (%) WST-8, MCF7 (1 µM)): 0.05%; IC50 [2, 9]: 207 nM; viability at 1 µM [6]: 1.6%; IC50 [7, 11]: 29 nM
CC(C)S(=O)(=O)N1CC2CC1CN2c1nc(Nc2cc(C3CC3)[nH]n2)c2ccccc2n1 (centres unmarked) [compound 15h, M-(5-cyclopropyl-1G-pyrazol-3-yl)-2-(5-(isopropylsulfonyl)-2,5-diazabicyclo[2.2.1]heptan-2-yl)quinazolin-4-amine]	51.7	–	–	–	147	15.7	45	94.5	1700	IC50 [7, 11]: 833 nM
CCCS(=O)(=O)N1CC2CC1CN2c1nc(Nc2cc(C3CC3)[nH]n2)c2ccccc2n1 (centres unmarked) [compound 15j, M-(5-cyclopropyl-1G-pyrazol-3-yl)-2-(5-(propylsulfonyl)-2,5-diazabicyclo[2.2.1]heptan-2-yl)quinazolin-4-amine]	65.2	–	–	–	284	31.6	65.2	104	3200	IC50 [7, 13]: 1300 nM
O=S(=O)(c1ccccc1)N1CC2CC1CN2c1nc(Nc2cc(C3CC3)[nH]n2)c2ccccc2n1 (centres unmarked) [compound 15m, M-(5-cyclopropyl-1G-pyrazol-3-yl)-2-(5-(phenylsulfonyl)-2,5-diazabicyclo[2.2.1]heptan-2-yl)quinazolin-4-amine]	82.6	–	–	–	490	28.7	82.2	111	4200	IC50 [7, 13]: 1900 nM
O=S(=O)(c1ccc(F)cc1)N1CC2CC1CN2c1nc(Nc2cc(C3CC3)[nH]n2)c2ccccc2n1 (centres unmarked) [compound 15n, M-(5-cyclopropyl-1G-pyrazol-3-yl)-2-(5-((4-fluorophenyl)sulfonyl)-2,5-diazabicyclo[2.2.1]heptan-2-yl)quinazolin-4-amine]	77.5	–	–	–	327	32.4	63.9	108	3500	IC50 [7, 13]: 1300 nM
O=S(=O)(c1ccc(F)cc1F)N1CC2CC1CN2c1nc(Nc2cc(C3CC3)[nH]n2)c2ccccc2n1 (centres unmarked) [compound 15o, M-(5-cyclopropyl-1G-pyrazol-3-yl)-2-(5-((2,4-difluorophenyl)sulfonyl)-2,5-diazabicyclo[2.2.1]heptan-2-yl)quinazolin-4-amine]	90.3	–	–	–	170	20.3	92.6	119	3700	IC50 [7, 13]: 2400 nM
CC(C)(C)OC(=O)N1CC2CCC1CN2c1nc(Nc2cc(C3CC3)[nH]n2)c2ccccc2n1 (centres unmarked) [compound 19, sdqs,butyl 5-(4-((5-cyclopropyl-1G-pyrazol-3-yl)amino)quinazolin-2-yl)-2,5-diazabicyclo[2.2.2]octane-2-carboxylate]	84.7	–	–	–	569	39.9	–	–	1100	viability at 1 µM [8]: 71.3%; viability at 1 µM [2, 14]: 41.2%; IC50 [7, 11]: 810 nM
c1ccc2c(Nc3cc(C4CC4)[nH]n3)nc(N3CC4CCC3CN4)nc2c1 (centres unmarked) [compound 20, 2-(2,5-diazabicyclo[2.2.2]octan-2-yl)-M-(5-cyclopropyl-1G-pyrazol-3-yl)quinazolin-4-amine trifluoroacetic acid]	30.9	–	–	–	–	–	–	–	–	IC50 ([1]; read-out: IC50(nM) pENSA): 66.5 nM; viability at 1 µM [8]: 3.9%; viability at 1 µM [2, 14]: 5.5%; IC50 [2, 9]: 150 nM; IC50 [3]: 194 nM; activity at 1 µM [3]: 36.5%; IC50 [7, 11]: 131 nM
CC(C)S(=O)(=O)N1CC2CCC1CN2c1nc(Nc2cc(C3CC3)[nH]n2)c2ccccc2n1 (centres unmarked) [compound 24a, M (5-cyclopropyl-1G-pyrazol-3-yl)-2-(5-(isopropylsulfonyl)-2,5-diazabicyclo[2.2.2]octan-2-yl)quinazolin-4-amine]	14	4.8	29.9	15.7	180	–	–	–	–	IC50 ([1]; read-out: IC50(nM) pENSA): 263 nM; IC50 [2, 15]: 954 nM; IC50 [7, 16]: 420 nM
O=S(=O)(C1CCCCC1)N1CC2CCC1CN2c1nc(Nc2cc(C3CC3)[nH]n2)c2ccccc2n1 (centres unmarked) [compound 24b, 2-(5-(cyclohexylsulfonyl)-2,5-diazabicyclo[2.2.2]octan-2-yl)-M-(5-cyclopropyl-1G-pyrazol-3-yl)quinazolin-4-amine]	36	90.7	24.8	26.5	198	–	–	–	–	IC50 ([1]; read-out: IC50(nM) pENSA): 770 nM; IC50 [7, 16]: 684 nM
O=S(=O)(c1cccs1)N1CC2CCC1CN2c1nc(Nc2cc(C3CC3)[nH]n2)c2ccccc2n1 (centres unmarked) [compound 24d, M-(5-cyclopropyl-1G-pyrazol-3-yl)-2-(5-(thiophen-2-ylsulfonyl)-2,5-diazabicyclo[2.2.2]octan-2-yl)quinazolin-4-amine]	2.6	6.4	32.9	4.9	597	–	–	–	–	IC50 ([1]; unit µM, read-out: IC50 pENSA): 1900 nM; IC50 [2, 15]: 626 nM; IC50 [7, 16]: 210 nM
N#Cc1ccccc1S(=O)(=O)N1CC2CCC1CN2c1nc(Nc2cc(C3CC3)[nH]n2)c2ccccc2n1 (centres unmarked) [compound 24e, 2-((5-(4-((5-cyclopropyl-1G-pyrazol-3-yl)amino)quinazolin-2-yl)-2,5-diazabicyclo[2.2.2]octan-2-yl)sulfonyl)benzonitrile]	4.1	2.2	10.8	2.8	213	–	–	–	–	IC50 ([1]; unit µM, read-out: IC50 pENSA): 1900 nM; IC50 [2, 15]: 543 nM; IC50 [7, 16]: 184 nM
